PubChem BioAssay AID330 (DTP/NCI, 2004)
Several values for one entry are separate records, joined by “and”; a condition that tells them apart may be missing. Equal entries are not always repeated. Inconclusive results and toxic doses are left out. Square brackets hold non-standard residues; d marks the D form. Peptide text beside a SMILES is read from it. ξ: configuration not given here. Ac5c = NC1(C(=O)O)CCCC1; ξS = NC(CO)C(=O)O

System: P388 leukemia ip, CD2F1 mice, survival T/C
Experiment: NCI In Vivo Anticancer Drug Screen. Data for tumor model P388 Leukemia (intraperitoneal) in CD2F1 (CDF1) mice
Settings: endpoint: median survival time, higher = longer survival
Procedure, shortened: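 Mice carrying the transplanted tumor received test compound or vehicle. Survival was recorded in each group, and the value is the treated-group measurement divided by that of the vehicle-treated control group.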

[1] = dose: 50.0 mg/kg/injection, schedule: Q01DX005 (ip), vehicle: saline
[2] = dose: 100.0 mg/kg/injection, schedule: Q01DX005 (ip), vehicle: saline
[3] = dose: 200.0 mg/kg/injection, schedule: Q01DX005 (ip), vehicle: saline
[4] = dose: 50.0 mg/kg/injection, schedule: Q01DX005 (ip), vehicle: saline with Tween-80
[5] = dose: 100.0 mg/kg/injection, schedule: Q01DX005 (ip), vehicle: saline with Tween-80
[6] = dose: 12.5 mg/kg/injection, schedule: Q01DX009 (ip), vehicle: saline with Tween-80
[7] = dose: 25.0 mg/kg/injection, schedule: Q01DX009 (ip), vehicle: saline with Tween-80
[8] = dose: 50.0 mg/kg/injection, schedule: Q01DX009 (ip), vehicle: Klucel (hydroxypropylcellulose) (HPC)
[9] = dose: 200.0 mg/kg/injection, schedule: Q01DX009 (ip), vehicle: Klucel (hydroxypropylcellulose) (HPC)

Question: What does the source list for `CN(C)c1ccc(Nc2c3ccccc3nc3ccccc23)cc1`?
Answer: T/C (dose: 12.5 mg/kg/injection, schedule: Q04DX002 (ip), vehicle: distilled water + Tween-80): 113 % of control; T/C (dose: 13.0 mg/kg/injection, schedule: Q04DX003 (ip), vehicle: saline with Tween-80): 100 % of control and 103 % of control; T/C (dose: 21.6 mg/kg/injection, schedule: Q04DX003 (ip), vehicle: saline with Tween-80): 107 % of control and 111 % of control; T/C (dose: 25.0 mg/kg/injection, schedule: Q04DX002 (ip), vehicle: distilled water + Tween-80): 150 % of control and 156 % of control; T/C (dose: 25.9 mg/kg/injection, schedule: Q04DX003 (ip), vehicle: saline): 109 % of control; T/C (dose: 36.0 mg/kg/injection, schedule: Q04DX003 (ip), vehicle: saline with Tween-80): 110 % of control and 111 % of control; T/C (dose: 50.0 mg/kg/injection, schedule: Q04DX002 (ip), vehicle: distilled water + Tween-80): 185 % of control and 196 % of control; T/C (dose: 100.0 mg/kg/injection, schedule: Q04DX003 (ip), vehicle: saline with Tween-80): 157 % of control; T/C (dose: 120.0 mg/kg/injection, schedule: Q04DX003 (ip), vehicle: saline): 179 % of control

Question: How did the T/C (dose: 0.16 mg/kg/injection, schedule: Q01DX009 (ip), vehicle: Klucel (hydroxypropylcellulose) (HPC)) turn out when `COc1cc2c(c(OC)c1OC)-c1ccc(OC)c(=O)cc1C(N(C)C(=O)CO)CC2` (configuration not stated) was run?
Answer: 120 % of control and 123 % of control

Question: And the T/C (dose: 0.31 mg/kg/injection, schedule: Q01DX009 (ip), vehicle: Klucel (hydroxypropylcellulose) (HPC))?
Answer: 155 % of control

Question: What about the T/C (dose: 0.62 mg/kg/injection, schedule: Q01DX009 (ip), vehicle: Klucel (hydroxypropylcellulose) (HPC)) of the same compound?
Answer: 166 % of control

Question: What about the T/C (dose: 0.62 mg/kg/injection, schedule: Q01DX009 (ip), vehicle: saline) of the same compound?
Answer: 189 % of control

Question: And the T/C (dose: 1.25 mg/kg/injection, schedule: Q01DX009 (ip), vehicle: Klucel (hydroxypropylcellulose) (HPC))?
Answer: 112 % of control and 212 % of control

Question: Which T/C [1] does the source give for `CC(NCCNC(C)C(=O)O)C(=O)O` (configuration not stated) here?
Answer: 101 % of control

Question: And the T/C [2]?
Answer: 103 % of control

Question: What about the T/C [3] of the same compound?
Answer: 100 % of control

Question: How did the T/C [4] turn out when `O=C1CN(c2ccc(Cl)cc2)C(=O)CN1/N=C/c1ccc(O)c(O)c1` was run?
Answer: 99 % of control

Question: And the T/C [5]?
Answer: 93 % of control

Question: `CCOC(=O)C(CO)NC(=O)C1(NC(C)=O)CCCC1` (configuration not stated) (Ac-[Ac5c]-[ξS]-OEt) was tested. Which T/C [1] did it give?
Answer: 100 % of control

Question: And the T/C [2]?
Answer: 100 % of control

Question: What about the T/C [3] of the same compound?
Answer: 100 % of control

Question: Which T/C [6] does the source give for `COc1ccccc1-n1cc[n+](C)c1/C=N/O` here?
Answer: 86 % of control

Question: What about the T/C [7] of the same compound?
Answer: 90 % of control

Question: What about the T/C (dose: 50.0 mg/kg/injection, schedule: Q01DX009 (ip), vehicle: saline) of the same compound?
Answer: 99 % of control

Question: Which results are given for `CC(Cl)(c1ccccc1)C1OCCO1` (configuration not stated)?
Answer: T/C (dose: 60.0 mg/kg/injection, schedule: Q01DX005 (ip), vehicle: saline with Tween-80): 100 % of control; T/C (dose: 120.0 mg/kg/injection, schedule: Q01DX005 (ip), vehicle: saline with Tween-80): 101 % of control; T/C (dose: 240.0 mg/kg/injection, schedule: Q01DX005 (ip), vehicle: saline with Tween-80): 102 % of control

Question: `COc1ccc(CCN=C(C)c2cc(Cl)cc(Cl)c2O)cc1OC` was tested. Which T/C (dose: 50.0 mg/kg/injection, schedule: Q01DX005 (ip), vehicle: Klucel (hydroxypropylcellulose) (HPC)) did it give?
Answer: 104 % of control

Question: And the T/C (dose: 100.0 mg/kg/injection, schedule: Q01DX005 (ip), vehicle: Klucel (hydroxypropylcellulose) (HPC))?
Answer: 102 % of control

Question: And the T/C (dose: 200.0 mg/kg/injection, schedule: Q01DX005 (ip), vehicle: Klucel (hydroxypropylcellulose) (HPC))?
Answer: 95 % of control

Question: Which T/C [4] does the source give for `O=[N+]([O-])c1ccc(C=C2C=CN(CCO)C=C2)cc1` here?
Answer: 100 % of control

Question: And the T/C [5]?
Answer: 108 % of control

Question: Which results are given for `CN(C)CC(CN(C)C)C(=O)/C=C/c1ccc(O)cc1`?
Answer: T/C (dose: 1.56 mg/kg/injection, schedule: Q01DX005 (ip), vehicle: saline): 105 % of control; T/C (dose: 3.12 mg/kg/injection, schedule: Q01DX005 (ip), vehicle: saline): 114 % of control; T/C (dose: 6.25 mg/kg/injection, schedule: Q01DX005 (ip), vehicle: saline): 114 % of control

Question: With `C(=C\c1cc2ccc(C3=NCCN3)cc2[nH]1)/c1cc2ccc(C3=NCCN3)cc2[nH]1` as the compound, how does the T/C (dose: 100.0 mg/kg/injection, schedule: Q04DX003 (ip), vehicle: saline) read?
Answer: 162 % of control

Question: What about the T/C (dose: 200.0 mg/kg/injection, schedule: Q04DX003 (ip), vehicle: saline) of the same compound?
Answer: 162 % of control

Question: What about the T/C (dose: 400.0 mg/kg/injection, schedule: Q04DX003 (ip), vehicle: saline) of the same compound?
Answer: 271 % of control

Question: Which results are given for `COc1cc(C(=O)O)c2c(c1C)OC(=O)c1c(C)cc(O)c(C=O)c1O2`?
Answer: T/C (dose: 6.25 mg/kg/injection, schedule: Q01DX009 (ip), vehicle: saline): 119 % of control; T/C (dose: 12.5 mg/kg/injection, schedule: Q01DX009 (ip), vehicle: saline): 119 % of control; T/C (dose: 25.0 mg/kg/injection, schedule: Q01DX009 (ip), vehicle: saline): 100 % of control; T/C (dose: 26.0 mg/kg/injection, schedule: Q04DX003 (ip), vehicle: saline): 116 % of control; T/C (dose: 40.0 mg/kg/injection, schedule: Q04DX003 (ip), vehicle: saline): 112 % of control; T/C (dose: 60.0 mg/kg/injection, schedule: Q04DX003 (ip), vehicle: saline): 119 % of control

Question: Which results are given for `O=C(CCCCCCCCc1ccccc1)c1c(O)cccc1O`?
Answer: T/C (dose: 6.0 mg/kg/injection, schedule: Q01DX009 (ip), vehicle: Klucel (hydroxypropylcellulose) (HPC)): 95 % of control; T/C (dose: 12.0 mg/kg/injection, schedule: Q01DX009 (ip), vehicle: Klucel (hydroxypropylcellulose) (HPC)): 88 % of control; T/C (dose: 24.0 mg/kg/injection, schedule: Q01DX009 (ip), vehicle: Klucel (hydroxypropylcellulose) (HPC)): 97 % of control; T/C (dose: 48.0 mg/kg/injection, schedule: Q01DX009 (ip), vehicle: Klucel (hydroxypropylcellulose) (HPC)): 97 % of control

Question: What does the source list for `COC(=O)Nc1cn2cc(C(=O)c3cccs3)ccc2n1`?
Answer: T/C [8]: 113 % of control; T/C [9]: 151 % of control

Question: What does the source list for `Cc1nc(C(=O)NO)c2ccccc2n1`?
Answer: T/C [6]: 102 % of control; T/C [7]: 102 % of control; T/C (dose: 50.0 mg/kg/injection, schedule: Q01DX009 (ip), vehicle: saline with Tween-80): 98 % of control and 97 % of control; T/C (dose: 200.0 mg/kg/injection, schedule: Q01DX009 (ip), vehicle: saline with Tween-80): 103 % of control

Question: For `NC(=O)C/C(N)=N/O`, which T/C [1] is on record?
Answer: 98 % of control

Question: What about the T/C [2] of the same compound?
Answer: 101 % of control

Question: And the T/C [3]?
Answer: 100 % of control

Question: Which T/C (dose: 12.5 mg/kg/injection, schedule: Q01DX005 (ip), vehicle: saline) does the source give for `c1cc2nc(-c3ccc4oc(C5=NCCN5)cc4c3)[nH]c2cc1C1=NCCN1` here?
Answer: 98 % of control

Question: And the T/C (dose: 25.0 mg/kg/injection, schedule: Q01DX005 (ip), vehicle: saline)?
Answer: 113 % of control

Question: And the T/C [1]?
Answer: 113 % of control and 118 % of control

Question: With `COc1cc2c(cc1OC)[C@H](c1cc(Br)c(O)c(OC)c1)[C@H]1C(=O)OCC1C2` (some centres not stated) as the compound, how does the T/C (dose: 12.5 mg/kg/injection, schedule: Q01DX005 (ip), vehicle: saline with Tween-80) read?
Answer: 87 % of control

Question: What about the T/C (dose: 25.0 mg/kg/injection, schedule: Q01DX005 (ip), vehicle: saline with Tween-80) of the same compound?
Answer: 92 % of control

Question: And the T/C [4]?
Answer: 92 % of control

Question: And the T/C [5]?
Answer: 88 % of control

Question: And the T/C (dose: 200.0 mg/kg/injection, schedule: Q01DX005 (ip), vehicle: saline with Tween-80)?
Answer: 89 % of control

Question: Which results are given for `CN=C(N)N/N=C(\c1ccccc1)c1ccc(F)cc1`?
Answer: T/C (dose: 12.5 mg/kg/injection, schedule: Q04DX002 (ip), vehicle: saline with Tween-80): 99 % of control; T/C (dose: 25.0 mg/kg/injection, schedule: Q04DX002 (ip), vehicle: saline with Tween-80): 100 % of control and 111 % of control

Question: `Cc1cc(-c2ccccc2)[s+]s1` was tested. Which T/C (dose: 12.5 mg/kg/injection, schedule: Q01DX009 (ip), vehicle: distilled water + Tween-80) did it give?
Answer: 101 % of control

Question: What about the T/C (dose: 25.0 mg/kg/injection, schedule: Q01DX009 (ip), vehicle: distilled water + Tween-80) of the same compound?
Answer: 115 % of control

Question: And the T/C (dose: 50.0 mg/kg/injection, schedule: Q01DX009 (ip), vehicle: distilled water + Tween-80)?
Answer: 117 % of control

Question: And the T/C (dose: 100.0 mg/kg/injection, schedule: Q01DX009 (ip), vehicle: distilled water + Tween-80)?
Answer: 111 % of control

Question: And the T/C (dose: 200.0 mg/kg/injection, schedule: Q01DX009 (ip), vehicle: distilled water + Tween-80)?
Answer: 117 % of control

Question: `O=NNc1ccnc(-c2cc(NN=O)ccn2)c1` was tested. Which T/C (dose: 3.12 mg/kg/injection, schedule: Q01DX009 (ip), vehicle: water) did it give?
Answer: 114 % of control

Question: And the T/C (dose: 6.25 mg/kg/injection, schedule: Q01DX009 (ip), vehicle: water)?
Answer: 120 % of control and 122 % of control

Question: What about the T/C (dose: 100.0 mg/kg/injection, schedule: Q01DX009 (ip), vehicle: water) of the same compound?
Answer: 87 % of control

Question: What does the source list for `FC1OC1(F)C12CC3CC(CC(C3)C1)C2` (configuration not stated)?
Answer: T/C [8]: 106 % of control; T/C (dose: 100.0 mg/kg/injection, schedule: Q01DX009 (ip), vehicle: Klucel (hydroxypropylcellulose) (HPC)): 106 % of control; T/C [9]: 105 % of control

Question: `COc1cc(C(=O)n2c(=O)oc(=O)c3cc([N+](=O)[O-])ccc32)cc(OC)c1OC` was tested. Which T/C (dose: 60.0 mg/kg/injection, schedule: Q01DX005 (ip), vehicle: saline) did it give?
Answer: 101 % of control

Question: And the T/C (dose: 120.0 mg/kg/injection, schedule: Q01DX005 (ip), vehicle: saline)?
Answer: 94 % of control

Question: What about the T/C (dose: 240.0 mg/kg/injection, schedule: Q01DX005 (ip), vehicle: saline) of the same compound?
Answer: 89 % of control
